This passage reports IC50 results from patent US12098139B2, “Chemokine receptor modulators and uses thereof” (RAPT Therapeutics, Inc., priority 2018, dated 2024).

In one test the target is T1, hCCR4 (Chem5-hCCR4 cells) (Homo sapiens, UniProt P51679).
T1 sequence (P51679 1-360): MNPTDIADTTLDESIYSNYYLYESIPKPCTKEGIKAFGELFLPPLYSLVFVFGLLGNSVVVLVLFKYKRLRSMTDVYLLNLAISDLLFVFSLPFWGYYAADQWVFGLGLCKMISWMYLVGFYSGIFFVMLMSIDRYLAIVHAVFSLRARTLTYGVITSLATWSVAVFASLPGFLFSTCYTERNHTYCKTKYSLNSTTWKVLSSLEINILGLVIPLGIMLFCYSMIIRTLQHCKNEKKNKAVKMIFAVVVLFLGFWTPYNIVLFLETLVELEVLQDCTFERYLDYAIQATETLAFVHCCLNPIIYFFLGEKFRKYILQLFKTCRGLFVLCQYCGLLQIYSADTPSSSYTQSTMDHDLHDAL
Description: Calcium flux assay (CCL22-stimulated, FLIPR Calcium 6 dye). Format: cell-based. To be noted: Table 3, CCL22 1.5 nM, read-out: Potency (IC50). The gist of the method: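 Chem5-hCCR4 cells were serum-starved 2 h and loaded 2 h with Calcium 6 dye plus 2.5 mM probenecid. They were then preincubated 1 h at 37 °C with compound (0.5% DMSO). CCL22 was added from a 7.5 nM working solution (5× EC80), and ΔF/Fmin at 485/525 nm was fitted 4-parameter for IC50.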
For the compound `C[C@@H](Nc1nc(N2CC([C@H]3CCCN([C@H]4C[C@@H](C(=O)O)C4)C3)C2)ncc1Cl)c1ccc(Cl)cc1Cl` [Example 8, (1S,3s)-3-((R)-3-(1-(5-chloro-4-(((R)-1-(2,4-dichlorophenyl)ethyl)amino)pyrimidin-2-yl)azetidin-3-yl)piperidin-1-yl)cyclobutane-1-carboxylic acid], the IC50 is less than 100 nM.

With `Cc1cnc(N2CC([C@H]3CCCN(C4CC(CO)C4)C3)C2)nc1N[C@H](C)c1ccc(Cl)cc1Cl` (stereo partly drawn) [Example 18, (3-((R)-3-(1-(4-(((R)-1-(2,4-dichlorophenyl)ethyl)amino)-5-methylpyrimidin-2-yl)azetidin-3-yl)piperidin-1-yl)cyclobutyl)methanol], the IC50 is less than 100 nM.

For `C[C@@H](Nc1nc(N2CC([C@H]3CCCN([C@H]4C[C@](C)(C(=O)O)C4)C3)C2)ncc1F)c1ccc(Cl)cc1Cl` [Example 47, (1R,3r)-3-((R)-3-(1-(4-(((R)-1-(2,4-dichlorophenyl)ethyl)amino)-5-fluoropyrimidin-2-yl)azetidin-3-yl)piperidin-1-yl)-1-methylcyclobutane-1-carboxylic acid], the IC50 fell in the range of 100 to 500 nM.

As for `C[C@@H](Nc1nc(N2CC([C@H]3CCCN([C@H]4C[C@](C)(C(=O)O)C4)C3)C2)ncc1Cl)c1ccc(Cl)cc1Cl` [Example 12, (1R,3r)-3-((R)-3-(1-(5-chloro-4-(((R)-1-(2,4-dichlorophenyl)ethyl)amino)pyrimidin-2-yl)azetidin-3-yl)piperidin-1-yl)-1-methylcyclobutane-1-carboxylic acid], the 50% inhibitory concentration (IC50) was less than 100 nM.

Turning to `C[C@@H](Nc1nc(N2CC([C@H]3CCCN([C@H]4C[C@](C)(C(=O)O)C4)C3)C2)ncc1C(F)(F)F)c1ccc(Cl)cc1Cl` [Example 39, (1R,3r)-3-((R)-3-(1-(4-(((R)-1-(2,4-dichlorophenyl)ethyl)amino)-5-(trifluoromethyl)pyrimidin-2-yl)azetidin-3-yl)piperidin-1-yl)-1-methylcyclobutane-1-carboxylic acid], the half-inhibitory concentration (IC50) is less than 100 nM.

As to `C[C@@H](Nc1nc(N2CC([C@H]3CCCN(CCO)C3)C2)cnc1C#N)c1ccc(Cl)cc1Cl` [Example 1, 3-(((R)-1-(2,4-dichlorophenyl)ethyl)amino)-5-(3-((R)-1-(2-hydroxyethyl)piperidin-3-yl)azetidin-1-yl)pyrazine-2-carbonitrile], the IC50 was less than 100 nM.

`Cc1cnc(N2CC([C@H]3CCCN(CCN4CCCC4=O)C3)C2)nc1N[C@H](C)c1ccc(Cl)cc1Cl` [Example 16, 1-(2-((R)-3-(1-(4-(((R)-1-(2,4-dichlorophenyl)ethyl)amino)-5-methylpyrimidin-2-yl)azetidin-3-yl)piperidin-1-yl)ethyl)pyrrolidin-2-one]: the IC50 is less than 100 nM.

Turning to `Cc1nc(N2CC([C@H]3CCCN([C@H]4C[C@](C)(C(=O)O)C4)C3)C2)nc(N[C@H](C)c2ccc(Cl)cc2Cl)c1Cl` [Example 38, (1R,3r)-3-((R)-3-(1-(5-chloro-4-(((R)-1-(2,4-dichlorophenyl)ethyl)amino)-6-methylpyrimidin-2-yl)azetidin-3-yl)piperidin-1-yl)-1-methylcyclobutane-1-carboxylic acid], the 50% inhibitory concentration (IC50) was less than 100 nM.

Turning to `C[C@@H](Nc1nc(N2CC([C@H]3CCCN([C@H]4C[C@@H](C(=O)O)C4)C3)C2)nc2ccccc12)c1ccc(Cl)cc1Cl` [Example 25, (1S,3s)-3-((R)-3-(1-(4-(((R)-1-(2,4-dichlorophenyl)ethyl)amino)quinazolin-2-yl)azetidin-3-yl)piperidin-1-yl)cyclobutane-1-carboxylic acid], the IC50 was less than 100 nM.

With `Cc1ncc(N2CC([C@H]3CCCN(CCO)C3)C2)nc1N[C@H](C)c1ccc(Cl)cc1Cl` [Example 3, 2-((R)-3-(1-(6-(((R)-1-(2,4-dichlorophenyl)ethyl)amino)-5-methylpyrazin-2-yl)azetidin-3-yl)piperidin-1-yl)ethan-1-ol], the IC50 was greater than 500 nM.

In the case of `C[C@@H](Nc1nc(N2CC([C@H]3CCCN([C@H]4C[C@](C)(C(=O)O)C4)C3)C2)ncc1C(C)(C)O)c1ccc(Cl)cc1Cl` [Example 35, (1R,3r)-3-((R)-3-(1-(4-(((R)-1-(2,4-dichlorophenyl)ethyl)amino)-5-(2-hydroxypropan-2-yl)pyrimidin-2-yl)azetidin-3-yl)piperidin-1-yl)-1-methylcyclobutane-1-carboxylic acid], the IC50 is less than 100 nM.

The test is the same for the next values; noted with them: Table 5, CCL22 1.5 nM, read-out: Potency (IC50).
Turning to `C[C@@H](Nc1nc(N2CC([C@H]3CCCN(CCO)C3)C2)nc2ccsc12)c1ccc(Cl)cc1Cl` [Example 62, 2-[(3R)-3-[1-[4-[[(1R)-1-(2,4-dichlorophenyl)ethyl]amino]thieno[3,2-d]pyrimidin-2-yl]azetidin-3-yl]-1-piperidyl]ethanol; 2,2,2-trifluoroacetic acid], the IC50 was less than 100 nM.

Regarding `C[C@@H](Nc1nc(N2CC([C@H]3CCCN([C@H]4C[C@@H](C(=O)O)C4)C3)C2)nc2ccc(F)cc12)c1ccc(Cl)cc1Cl` [Example 66, 3-[(1S,3R)-3-[1-[4-[[(1R)-1-(2,4-dichlorophenyl)ethyl]amino]-6-fluoro-quinazolin-2-yl]azetidin-3-yl]-1-piperidyl]cyclobutanecarboxylic acid; 2,2,2-trifluoroacetic acid], the IC50 was less than 100 nM.

As to `C[C@@H](Nc1nc(N2CC([C@H]3CCCN(C4CC(C)(C(=O)O)C4)C3)C2)nc2ccn(C)c12)c1ccc(Cl)cc1Cl` (single isomer, unassigned) [Example 81, trifluoroacetic acid], the half-inhibitory concentration (IC50) is less than 100 nM.

Regarding `C[C@@H](Nc1nc(N2CC([C@H]3CCCN([C@H]4C[C@@H](C(=O)O)C4)C3)C2)ncc1C#N)c1ccc(Cl)cc1Cl` [Example 93, 3-[(3R)-3-[1-[5-cyano-4-[[(1R)-1-(2,4-dichlorophenyl)ethyl]amino]pyrimidin-2-yl]azetidin-3-yl]-1-piperidyl]cyclobutanecarboxylic acid], the IC50 is 100 to 500 nM.

As for `CC(O)c1cnc(N2CC([C@H]3CCCN([C@H]4C[C@](C)(C(=O)O)C4)C3)C2)nc1N[C@H](C)c1ccc(Cl)cc1Cl` (stereo partly drawn) [Example 58, 3-[(3R)-3-[1-[4-[[(1R)-1-(2,4-dichlorophenyl)ethyl]amino]-5-(1-hydroxyethyl)pyrimidin-2-yl]azetidin-3-yl]-1-piperidyl]-1-methyl-cyclobutanecarboxylic acid; 2,2,2-trifluoroacetic acid], the IC50 was less than 100 nM.

Consider `CC(C)C(O)c1cnc(N2CC([C@H]3CCCN([C@H]4C[C@](C)(C(=O)O)C4)C3)C2)nc1N[C@H](C)c1ccc(Cl)cc1Cl` (stereo partly drawn) [Example 76, 3-[(3R)-3-[1-[4-[[(1R)-1-(2,4-dichlorophenyl)ethyl]amino]-5-(1-hydroxy-2-methyl-propyl)pyrimidin-2-yl]azetidin-3-yl]-1-piperidyl]-1-methyl-cyclobutanecarboxylic acid; 2,2,2-trifluoroacetic acid], for which the IC50 was less than 100 nM.

Take `Cc1cc2c(N[C@H](C)c3ccc(Cl)cc3Cl)nc(N3CC([C@H]4CCCN(C5CC(C)(C(=O)O)C5)C4)C3)nc2s1` (single isomer, unassigned) [Example 67, trifluoroacetic acid]: the half-maximal inhibitory concentration (IC50) was less than 100 nM.
